Data on 17 molecules can be found in US20230295159A1, “ATX INHIBITOR, AND PREPARATION METHOD THEREFOR AND USE THEREOF” (SUZHOU ARK BIOPHARMACEUTICAL CO., LTD., priority 2020, published 2023).

Like-named read-outs stand apart in the source and are kept apart here.

One may read the IC50 as the concentration that inhibits the measured activity by half. As a reminder, the AUC(0-inf) is the area under the concentration-time curve extrapolated to infinity. Lower therefore signals less exposure. A word on the AUC(0-t): it is the area under the concentration-time curve up to a stated or last time point. Low values mean less exposure, high ones more exposure. A word on the Cmax: it is the maximum level reached in the sampled fluid or tissue. Usually Tmax stands for the time from dosing to the highest level.

Data set [1] addresses ATX enzyme (Homo sapiens (Human), UniProt Q13822). The experiment in a line: ATX enzyme activity inhibition assay. It is filed as biochemical. Conditions: 16:0-LPC substrate, Amplex UltraRed fluorescence. The procedure:
The tested compounds were dissolved with dimethyl sulfoxide (DMSO) to prepare 20 mM of stock solutions, the stock solutions were subjected to 4-fold gradient dilutions with DMSO, with the initial concentration of 20 µM and a total of 8 concentration gradients. 20 nL of diluted compound was transferred to a 384-well plate using Echo 550 and 5 µL of ATX enzyme solution formulated with 4 × Tris-HCl reaction buffer to the well, then the 384-well plate was centrifuged at 1000 rpm for 1 min and […] pre-incubated at room temperature for 15 min. Subsequently, 5 µL of 16:0-LPC foumulated with the above 4 × reaction buffer and 10 µL of assay solution containng 2 × Amplex UltraRed reagent, choline oxidase and horseradish peroxidase (HRP) foumulated with the same reaction buffer were added to each well, then the 384-well plate was centrifugated at 1000 rpm for 1 min. The fluorescence signals were read at an excitation wavelength of 530 nm and an emission wavelength of 590 nm by Synergy 2 microplate reader. The inhibition rate of the compound against enzyme reaction was calculated according to the fluorescence intensity ratio, and IC50 of the compound was analysed and calculated by GraphPad Prism 5 software.

Data set [2] is described as follows: Rat pharmacokinetic study. It is filed as in vivo, SD rat. Particulars: for half-life: read-out: t½ (converted). The procedure:
SD rat pharmacokinetic study was performed on several compounds in Examples of the present disclosure through a single intravenous injection (IV, at a dose of 2 mg/kg) and a single oral administration (PO, at a dose of 10 mg/kg), and blood samples were taken before administration and 5 min, 15 min, 30 min, 1 h, 2 h, 4 h, 8 h, 12 h and 24 h after administration, respectively, to determine the plasma concentration of the compound for assay. The pharmacokinetic data of control compound and the compounds in Examples 17, 26, 28 and 29 of the present disclosure in rat plasma are shown in Tables 4-8.

Data set [3] deals with Chinese hamster ovary cells (CHO-WBL). Nature of the data set: In vitro micronucleus assay with Chinese hamster ovary cells. The procedure:
In the major micronucleus assay, CHO-WBL cells were exposed to at least 3 concentrations of the test object, while vehicle control group and positive control group were set up, with 2 replicated wells for each dose group. In inactivated test system, the administration lasted for 3 and 24 hours, and in S9 activated test system, the exposure to the test object lasted for 3 hours.
When choosing the highest dose for micronucleus frequency assay, the cytotoxicity of dose group of the test object should not substantially exceed 50% of that of the corresponding vehicle control group.
On the premise that the test is valid, the test results are evaluated according to the following criteria:
If the test object simutaneously meets the following criteria, it can be considered as positive:
A significant increase in micronucleus frequency is observed in one or more concentration groups.
If none of the above three points is met, the test object can be considered as negative.

Setting [4] is: 3-hour administration with metabolic activation, 5 µg/ml.

Turning to `CCc1nc2ccc(-c3ccc(CC(=O)N4CC(O)C4)nn3)cn2c1N(C)c1nc(-c2ccc(F)cc2)c(C#N)s1` [Example 5, 2-((2-ethyl-6-(6-(2-(3-hydroxyazetidin-1-yl)-2-oxoethyl)pyridazin-3-yl)imidazo[1,2-a]pyridin-3-yl)(methyl)amino)-4-(4-fluorophenyl)thiazole-5-carbonitrile], the IC50 in data set [1] came out at 48 nM.

For `CCc1nc2c(C)cc(N3CCN(CC(=O)N4CC(O)C4)CC3)cn2c1N(C)c1nc(-c2ccc(F)cc2)c(C#N)s1` [GLPG1690], the results for the Cl_F_pred in data set [2] (IV 2 mg/kg) and in data set [2] (PO 10 mg/kg) were 7.5 mL/min/kg and 65.5 mL/min/kg, respectively. Besides, in data set [2] (PO 10 mg/kg vs IV 2 mg/kg), the F is 12%. In addition, the AUC(0-inf) in data set [2] (SD, plasma, IV 2 mg/kg) worked out at 4460 ng·h/mL; in data set [2] (SD, plasma, PO 10 mg/kg), 2700 ng·h/mL. Moreover, the AUC(0-t) in data set [2] (SD, plasma, IV 2 mg/kg) is 4460 ng·h/mL; in data set [2] (SD, plasma, PO 10 mg/kg) it was 2680 ng·h/mL. Further, the Cmax in data set [2] (SD, plasma, IV 2 mg/kg) is 8340 ng/mL; in data set [2] (SD, plasma, PO 10 mg/kg) it was 512 ng/mL. The half-life in data set [2] (SD, plasma, IV 2 mg/kg) is 1.5 h; in data set [2] (SD, plasma, PO 10 mg/kg), 4 h. The Tmax in data set [2] (SD, plasma, PO 10 mg/kg) is 1 h. In addition, the “% binuclear cells containing micronucleus” value in data set [3] (3-hour administration with metabolic activation, 2 µg/ml) is 1.55%; in data set [3] (setting [4]) it was 1.65%; in data set [3] (3-hour administration with metabolic activation, 10 µg/ml), 1.70%; in data set [3] (3-hour administration with metabolic activation, 30 µg/ml) it was 1.85%; in data set [3] (3-hour administration without metabolic activation, 2 µg/ml) it was 1.90%; in data set [3] (3-hour administration without metabolic activation, 5 µg/ml), 1.85%. In addition, the “% binuclear cells containing micronucleus” value worked out at 1.65% in data set [3] (3-hour administration without metabolic activation, 10 µg/ml); 1.85% in data set [3] (3-hour administration without metabolic activation, 30 µg/ml); 1.95% in data set [3] (24-hour administration without metabolic activation, 2 µg/ml); 1.65% in data set [3] (24-hour administration without metabolic activation, 4 µg/ml); 1.60% in data set [3] (24-hour administration without metabolic activation, 6 µg/ml); 4.85% in data set [3] (24-hour administration without metabolic activation, 7 µg/ml). For the same molecule, the “% binuclear cells containing micronucleus” value in data set [3] (24-hour administration without metabolic activation, 8 µg/ml) stood at 14.4%. For the same molecule, in data set [3] (overall verdict over all administration series), the “potential to induce micronucleus formation in CHO-WBL cells” value is given as “positive”.

For the molecule `CCN(c1nc(-c2ccc(F)cc2)c(C#N)s1)c1c2nc(-c3cnc(N4CC(OC(C)=O)C4)nc3)ccc2nn1CC` [Example 25, 1-(5-(3-((5-cyano-4-(4-fluorophenyl)thiazol-2-yl)(ethyl)amino)-2-ethyl-2H-pyrazolo[4,3-b]pyridin-5-yl)pyrimidin-2-yl)azetidin-3-yl acetate], the IC50 in data set [1] was 12 nM.

In the case of `CCc1nc2ccc(-c3cnc(C(=O)NC4CC5(CNC5)C4)cn3)cn2c1N(C)c1nc(-c2ccc(F)cc2)c(C#N)s1` [Example 15, 5-(3-((5-cyano-4-(4-fluorophenyl)thiazol-2-yl)(methyl)amino)-2-ethylimidazo[1,2-a]pyridin-6-yl)-N-(2-azaspiro[3.3]heptan-6-yl)pyrazin-2-carboxamide], the IC50 in data set [1] came to 40 nM.

As for `CCc1nc2ccc(-c3ncc(CC(=O)N4CC(O)C4)cc3F)cn2c1N(C)c1nc(-c2ccc(F)cc2)c(C#N)s1` [Example 10, 2-((2-ethyl-6-(3-fluoro-5-(2-(3-hydroxyazetidin-1-yl)-2-oxoethyl)pyridin-2-yl)imidazo[1,2-a]pyridin-3-yl)(methyl)amino)-4-(4-fluorophenyl)thiazole-5-carbonitrile], the IC50 in data set [1] was 18 nM.

Consider `CCc1nc2ccc(-c3cnc(N4CCCS4(=O)=O)cn3)cn2c1N(CC)c1nc(-c2ccc(F)cc2)c(C#N)s1` [Example 19, 2-((6-(5-(1,1-dioxidoisothiazolidin-2-yl)pyrazin-2-yl)-2-ethylimidazo[1,2-a]pyridin-3-yl)(ethyl)amino)-4-(4-fluorophenyl)thiazole-5-carbonitrile], for which the IC50 in data set [1] is 17 nM.

On to `CCc1nc2ccc(-c3cnc(CC(=O)N4CC[C@@H](O)C4)cn3)cn2c1N(C)c1nc(-c2ccc(F)cc2)c(C#N)s1` [Example 13, (R)-2-((2-ethyl-6-(5-(2-(3-hydroxypyrrolidin-1-yl)-2-oxoethyl)pyrazin-2-yl)imidazo[1,2-a]pyridin-3-yl)(methyl)amino)-4-(4-fluorophenyl)thiazole-5-carbonitrile], for which the half-maximal inhibitory concentration (IC50) in data set [1] is 13 nM.

On to `CCc1nn2ccc(-c3cnc(N4CCCS4(=O)=O)nc3)nc2c1N(CC)c1nc(-c2ccc(F)cc2)c(C#N)s1` [Example 18, 2-((5-(2-(1,1-dioxidoisothiazolidin-2-yl)pyrimidin-5-yl)-2-ethyl-pyrazolo[1,5-a]pyrimidin-3-yl)(ethyl)amino)-4-(4-fluorophenyl)thiazole-5-carbonitrile], for which the IC50 in data set [1] worked out at 15 nM.

Regarding `CCc1nc2ccc(-c3cnc(CC(=O)N4CC[C@H](O)C4)cn3)cn2c1N(C)c1nc(-c2ccc(F)cc2)c(C#N)s1` [Example 11, (S)-2-((2-ethyl-6-(5-(2-(3-hydroxypyrrolidin-1-yl)-2-oxoethyl)pyrazin-2-yl)imidazo[1,2-a]pyridin-3-yl)(methyl)amino)-4-(4-fluorophenyl)thiazole-5-carbonitrile], in data set [1], the IC50 is 25 nM.

For `CCc1nc2ccc(-c3ccc(CC(=O)N4CC(O)C4)cc3)cn2c1N(C)c1nc(-c2ccc(F)cc2)c(C#N)s1` [Example 1, 2-((2-ethyl-6-(4-(2-(3-hydroxyazetidin-1-yl)-2-oxoethyl)phenyl)imidazo[1,2-a]pyridin-3-yl)(methyl)amino)-4-(4-fluorophenyl)thiazole-5-carbonitrile], in data set [1], the 50% inhibitory concentration (IC50) worked out at 30 nM.

With `CCc1nc2ccc(-c3ccc(CC(=O)N4CC(O)C4)cn3)cn2c1N(C)c1nc(-c2ccc(F)cc2)c(C#N)s1` [Example 7, 2-((2-ethyl-6-(5-(2-(3-hydroxyazetidin-1-yl)-2-oxoethyl)pyridin-2-yl)imidazo[1,2-a]pyridin-3-yl)(methyl)amino)-4-(4-fluorophenyl)thiazole-5-carbonitrile], the IC50 in data set [1] was determined as 25 nM.

Consider `CCc1nc2ccc(-c3cnc(CC(=O)NCC4CCC(=O)N4)cn3)cn2c1N(C)c1nc(-c2ccc(F)cc2)c(C#N)s1` (stereo not drawn) [Example 14, 2-(5-(3-((5-cyano-4-(4-fluorophenyl)thiazol-2-yl)(methyl)amino)-2-ethylimidazo[1,2-a]pyridin-6-yl)pyrazin-2-yl)-N-((5-oxopyrrolidin-2-yl)methyl)acetamide], for which the IC50 in data set [1] amounted to 42 nM.

For `CCc1nc2ccc(-c3cnc(N(C)S(C)(=O)=O)nc3)cn2c1N(CC)c1nc(-c2ccc(F)cc2)c(C#N)s1` [Example 20, N-(5-(3-((5-cyano-4-(4-fluorophenyl)thiazol-2-yl)(ethyl)amino)-2-ethylimidazo[1,2-a]pyridin-6-yl)pyrimidin-2-yl)-N-methylmethanesulfonamide], the IC50 in data set [1] was found to be 45 nM.

On to `CCc1nc2ccc(-c3cnc(CC(=O)N4CC(O)C4)c(F)c3)cn2c1N(C)c1nc(-c2ccc(F)cc2)c(C#N)s1` [Example 3, 2-((2-ethyl-6-(5-fluoro-6-(2-(3-hydroxyazetidin-1-yl)-2-oxoethyl)pyridin-3-yl)imidazo[1,2-a]pyridin-3-yl)(methyl)amino)-4-(4-fluorophenyl)thiazole-5-carbonitrile], for which the IC50 in data set [1] stood at 5.2 nM.

For `CCN(c1nc(-c2ccc(F)cc2)c(C#N)s1)c1c2nc(-c3cnc(N4CC(CO)C4)nc3)ccc2nn1CC` [Example 24, 2-(ethyl(2-ethyl-5-(2-(3-(hydroxymethyl)azetidin-1-yl)pyrimidin-5-yl)-2H-pyrazolo[4,3-b]pyridin-3-yl)amino)-4-(4-fluorophenyl)thiazole-5-carbonitrile], the IC50 in data set [1] came to 11 nM.

For the molecule `CCN(c1nc(-c2ccc(F)cc2)c(C#N)s1)c1c2nc(-c3cnc(N4CCCCS4(=O)=O)nc3)ccc2nn1CC` [Example 21, 2-((5-(2-(1,1-dioxido-1,2-thiazinan-2-yl)pyrimidin-5-yl)-2-ethyl-2H-pyrazolo[4,3-b]pyridin-3-yl)(ethyl)amino)-4-(4-fluorophenyl)thiazole-5-carbonitrile], in data set [1], the IC50 is 11 nM.

Take `O=P1(N(CCCl)CCCl)NCCCO1` (stereo not drawn) [Cyclophosphamide monohydrate]: the “% binuclear cells containing micronucleus” value in data set [3] (setting [4]) came out at 20.8%.
